Test system: subjects with insomnia related to major depressive disorder
Test: DREAMDD clinical study: fluoxetine titration (20 mg to 40 mg at Visit 7)
Type: in vivo, human
Conditions: for Subjects on Fluoxetine Hydrochloride 20 mg / Subjects on Fluoxetine Hydrochloride 40 mg: eszopiclone 3 mg group, ITT
Protocol: In addition, subjects were randomized at Visit 3 (end of baseline) to treatment with one of the following nightly (at bedtime): eszopiclone (3 mg) or matching placebo.
Sleep, Depression, and Productivity Questionnaires and Clinical Global Impression: The following questionnaires were administered as listed below. • Epworth Sleepiness Scale (ESS): ESS was completed by the subject at Visits 2-10. The ESS is a subjective assessment of the likelihood of falling asleep in various situations. • Insomnia Severity Index (ISI): ISI was completed by the subject at Visits 3, 5, 7, 9 and 10. The ISI is a subjective assessment of sleep quality, restedness/refreshness upon arising, daytime fatigue, attention/concentration and relationship and mood disturbances. • Work Limitations Questionnaire (WLQ): WLQ was completed by the subject at Visits 3, 5, 7, 9, and 10. The WLQ is a validated self-report instrument for measuring the degree to which chronic health problems interfere with ability to perform job roles, addressing the content of the job through a demand-level methodology. • Hamilton Depression-17: HAM-D-17 was administered via IVRS at screening and rated by a trained clinician at Visits 3, 7, 9, and 10. • SF-36: SF-36 was completed by the subject at Visits 3, 7, 9 and 10. The SF-36 represents multiple operational definitions of health, including function and dysfunction, distress and well-being, objective reports and subjective ratings, and both favorable and unfavorable self-evaluations of general health status. • Clinical Global Impression (CGI): CGI was completed by the investigator at Visits 3-10 The CGI is the investigator's subjective assessment of improvement in the subject's depressive symptoms. The response on the CGI at Visit 7 (Week 4 of double-blind treatment) was used by the investigator to assess the need for increasing the dose of fluoxetine to 40 mg daily (in the morning). […] Study Conduct
Visit 7 occurred 7 (±2) days after Visit 6. […] Double-blind dosing (at bedtime) continued nightly through Visit 9. • 1. Collected and reviewed the MEC. Recorded all changes in concurrent medications, including OTC and health and dietary supplements, and AEs that may have occurred between Visit 6 and Visit 7. • 2. […] Subjects completed the ESS, 1SI, WLQ, and SF-36 questionnaires prior to performing any other study related procedures. The questionnaires were reviewed for completeness by study staff. Any items left blank were returned to the subject for completion. • 4. A trained clinician administered the Hamilton-D-17 to assess depression symptoms. • 5. The investigator completed the Clinical Global Impression. […] If an increased dose of fluoxetine was required, the investigator dispensed the double-blind blister pack containing the 40 mg dose of fluoxetine. • 6. Dispensed the appropriate Visit 7 double-blind blister pack. […] Note: only one Visit 7 blister card was dispensed. • 7. Obtained vital signs (seated) and weight. • 8. Obtained blood and urine samples for clinical laboratory assessments including urinalysis, urine drug and alcohol screen, and a serum pregnancy tests on all women. • 9. Reviewed use of IVRS and the schedule for calling. Subjects call the IVRS the morning following this visit and on the morning of Visit 8 (prior to the visit). • 10. Issued MEC and instruct the subject on its use. • 11. Scheduled Visit 8 in 14 (±2) days. Visit 8 (Double-Blind Treatment Week 6)

CN1CCN(C(=O)OC2c3nccnc3C(=O)N2c2ccc(Cl)cn2)CC1 (single isomer, unassigned; (+)) [Eszopiclone, (+) 6-(5-chloro-2-pyridinyl)-6,7-dihydro-7-oxo-5H-pyrrolo[3,4b]pyrazin-5-yl 4-methylpiperazine-1-carboxylate]
Subjects on Fluoxetine Hydrochloride 20 mg (Visit 7 (Week 4)): 125 (55.8%) n (%) | Subjects on Fluoxetine Hydrochloride 40 mg (Visit 7 (Week 4)): 99 (44.2%) n (%) | Subjects on Fluoxetine Hydrochloride 20 mg (Visit 8 (Week 6)): 115 (54.0%) n (%) | Subjects on Fluoxetine Hydrochloride 40 mg (Visit 8 (Week 6)): 98 (46.0%) n (%) | Subjects on Fluoxetine Hydrochloride 20 mg (Visit 9 (Week 8)): 103 (52.8%) n (%) | Subjects on Fluoxetine Hydrochloride 40 mg (Visit 9 (Week 8)): 92 (47.2%) n (%) | antidepressant dose escalation to higher dose of fluoxetine (co-administration with fluoxetine vs placebo): less patients in this study required antidepressant dose escalation | Fluoxetine dose increases (p<0.05 vs placebo, 3 mg nightly + fluoxetine): 44%

Source: patent US8097625B2, “Combination of sedative and a neurotransmitter modulator, and methods for improving sleep quality and treating depression” (priority 2003, dated 2012)
